# Laboratory results from patent US9115147B2, “Tricyclic derivatives and their pharmaceutical use and compositions” (Cephalon, Inc., priority 2009, dated 2015).
# Target: T1, human 5-HT6 receptor (Homo sapiens, UniProt P50406)
# T1 construct: host or cells: CHO-K1 cells, stably transfected; membranes prepared in house
# Test: Human 5-HT6 Receptor Binding Assay ([3H]LSD, scintillation beads)
# Settings: Human 5-HT6 Ki app (nM), membranes of CHO-K1 cells with recombinant human 5-HT6 receptor, 4 nM [3H]LSD, Cheng-Prusoff
# Procedure: Human 5-HT6 Receptor Binding Assay
# Membranes were prepared from CHO-K1 cells stably transfected with the human 5-HT6 receptor (Euroscreen; ES-316-C). The cells were grown in Gibco Advanced DMEM-F12 (Cat#12634010) containing 2% dialyzed FBS (Hyclone Cat#SH30079.03). The cells were harvested in phosphate buffered saline (PBS) containing 0.1 mM EDTA and pelleted by centrifugation (1000×g), the supernatant was discarded and the pellets were stored at −80° C. prior to membrane preparation. Membranes were prepared as previously described (J Bio Chem. 1992, 267 (14) 9844-51). Briefly, frozen cell pellet was resuspended in a lysis buffer containing 5 mM Tris-HCl (pH 7.5), 5 mM EDTA and 1 complete EDTA-free protease inhibitor tablet (Roche Applied Science, Indianapolis, Ind.) per 50 mL buffer, and homogenized with a tissue homogenizer. The cell lysate was then centrifuged at 40,000×g for 30 min at 4° C. to collect the membranes. The membrane pellets were washed in membrane buffer (50 mM Tris-HCl (pH 7.5), 0.6 mM EDTA, 5 mM MgCl2, 1 complete EDTA-free protease inhibitor tablet per 50 mL buffer) using a tissue homogenizer. The membranes were centrifuged at 40,000×g for 30 min at 4° C. and the pellets were resuspended in membrane buffer containing 250 mM sucrose, and protein concentration was determined using the Coomassie Plus kit (Pierce Biotechnology, Rockford, Ill.).
# Membranes prepared from cells expressing recombinant human 5-HT6 receptor (h5-HT6) were resuspended in assay buffer containing 50 mM Tris HCl, (pH7.4), 4 mM CaCl2, 10 μg/mL saponin, and 0.1% (w/v) ascorbic acid. Membranes were preincubated using 1.75 μg membrane protein and 0.25 mg FlashBlue scintillation beads (PerkinElmer catalogue #FB001) per well at 4° C. for 30 min. […] Test compounds or assay controls for total and non-specific binding were diluted in DMSO as 100× solutions and serially diluted by half log concentrations on a Perkin Elmer JANUS Automated Workstation. Serotonin (10 μM final concentration) was used to determine non-specific binding in the assay. Plates were read using the Microbeta Trilux 1450 LSC and luminescence counter. Data were analyzed by nonlinear […] using the dose-response equation (variable slope) to calculate IC50 in XLfit4 (ID Business Solutions Inc.): y=(Bottom+((Top−Bottom)/(1+((IC50/x)^Hill slope))))
# Ki value was then calculated according to the Cheng-Prusoff method using the equation below (Cheng and Prusoff, 1973): Ki, app=IC50/(1+([radioligand]/Kd))
# T1 sequence (P50406 whole entry): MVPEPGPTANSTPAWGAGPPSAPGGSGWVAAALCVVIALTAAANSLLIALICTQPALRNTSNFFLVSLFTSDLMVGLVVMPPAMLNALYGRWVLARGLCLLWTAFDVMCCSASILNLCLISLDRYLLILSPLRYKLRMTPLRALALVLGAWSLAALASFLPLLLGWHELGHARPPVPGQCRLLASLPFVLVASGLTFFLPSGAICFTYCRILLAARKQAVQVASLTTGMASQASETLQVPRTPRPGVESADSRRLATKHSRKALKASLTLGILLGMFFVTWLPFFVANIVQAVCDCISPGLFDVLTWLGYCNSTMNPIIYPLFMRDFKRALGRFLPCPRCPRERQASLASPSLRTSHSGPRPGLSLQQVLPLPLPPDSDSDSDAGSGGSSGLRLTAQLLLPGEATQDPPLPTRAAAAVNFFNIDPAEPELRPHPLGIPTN
row,Compound,Ki [nM]
1,"O=S(=O)(c1cncc(F)c1)c1ccc2c(c1)OCC1NCCC21 (single isomer, unassigned) [Example 32, 7-[(5-fluoropyridin-3-yl)sulfonyl]-1,2,3,3a,4,9b-hexahydrochromeno[3,4-b]pyrrole]",> 1000
2,"Cc1cccc(S(=O)(=O)c2ccc3c(c2)OCC2NCCC32)n1 (single isomer, unassigned) [Example 23, 7-[(6-methylpyridin-2-yl)sulfonyl]-1,2,3,3a,4,9b-hexahydrochromeno[3,4-b]pyrrole]",< 500
3,"O=S(=O)(c1cncc(F)c1)c1ccc2c(c1)OCC1NCCC21 (single isomer, unassigned) [Example 29, 7-[(5-fluoropyridin-3-yl)sulfonyl]-1,2,3,3a,4,9b-hexahydrochromeno[3,4-b]pyrrole]",< 500
4,"COc1cncc(S(=O)(=O)c2ccc3c(c2)OCC2NCCC32)c1 (single isomer, unassigned) [Example 33, 7-[(5-methoxypyridin-3-yl)sulfonyl]-1,2,3,3a,4,9b-hexahydrochromeno[3,4-b]pyrrole]",< 500

# Same assay, conditions: actual data; membranes of CHO-K1 cells with recombinant human 5-HT6 receptor, 4 nM [3H]LSD; read-out: Human 5-HT6 Ki
row,Compound,Ki [nM]
1,"CC(C)N1CCC2c3ccc(S(=O)(=O)c4ccccc4)cc3OCC21 (single isomer, unassigned) [Example 57, 7-(phenylsulfonyl)-3-(propan-2-yl)-1,2,3,3a,4,9b-hexahydrochromeno[3,4-b]pyrrole]",504

# Same assay, conditions: membranes of CHO-K1 cells with recombinant human 5-HT6 receptor, 4 nM [3H]LSD, Cheng-Prusoff; read-out: Human 5-HT6 Ki app
row,Ki [nM],Compound
1,< 500,"O=S(=O)(c1ccc2c(c1)OCC1NCCC21)c1cc(F)cc(F)c1F (single isomer, unassigned) [Example 50, 7-[(2,3,5-trifluorophenyl)sulfonyl]-1,2,3,3a,4,9b-hexahydrochromeno[3,4-b]pyrrole]"
2,< 500,"COc1cc(F)cc(S(=O)(=O)c2ccc3c(c2)OCC2NCCC32)c1 (single isomer, unassigned) [Example 44, 7-[(3-fluoro-5-methoxyphenyl)sulfonyl]-1,2,3,3a,4,9b-hexahydrochromeno[3,4-b]pyrrole]"
3,< 500,"O=S(=O)(c1ccc(F)cc1)c1ccc2c(c1)OCC1NCCC21 (single isomer, unassigned) [Example 13, 7-[(4-fluorophenyl)sulfonyl]-1,2,3,3a,4,9b-hexahydrochromeno[3,4-b]pyrrole]"
4,> 1000,"O=S(=O)(c1cncc(C(F)(F)F)c1)c1ccc2c(c1)OCC1C2CCN1C1CCC1 (single isomer, unassigned) [Example 87, 3-cyclobutyl-7-{[5-(trifluoromethyl)pyridin-3-yl]sulfonyl}-1,2,3,3a,4,9b-hexahydrochromeno[3,4-b]pyrrole]"
5,< 500,"O=S(=O)(c1ccc2c(c1)OCC1NCCC21)c1cccc(F)c1F (single isomer, unassigned) [Example 41, 7-[(2,3-difluorophenyl)sulfonyl]-1,2,3,3a,4,9b-hexahydrochromeno[3,4-b]pyrrole]"
6,< 500,"O=S(=O)(c1ccccc1)c1ccc2c(c1)C1CCNC1CO2 (single isomer, unassigned) [Example 54, 8-(phenylsulfonyl)-1,2,3,3a,4,9b-hexahydrochromeno[3,4-b]pyrrole]"
7,< 500,"CC(C)COc1cc(F)cc(S(=O)(=O)c2ccc3c(c2)OCC2NCCC32)c1 (single isomer, unassigned) [Example 47, 7-{[3-fluoro-5-(2-methylpropoxy)phenyl]sulfonyl}-1,2,3,3a,4,9b-hexahydrochromeno[3,4-b]pyrrole]"
8,> 1000,"O=S(=O)(c1cncc(F)c1)c1ccc2c(c1)OCC1C2CCN1C1CCC1 (single isomer, unassigned) [Example 80, 3-cyclobutyl-7-[(5-fluoropyridin-3-yl)sulfonyl]-1,2,3,3a,4,9b-hexahydrochromeno[3,4-b]pyrrole]"
9,< 500,"O=S(=O)(c1ccc2c(c1)OCC1NCCC21)c1cccc(F)c1F (single isomer, unassigned) [Example 49, 7-[(2,3-difluorophenyl)sulfonyl]-1,2,3,3a,4,9b-hexahydrochromeno[3,4-b]pyrrole]"
10,< 500,"CC(C)Oc1cc(F)cc(S(=O)(=O)c2ccc3c(c2)OCC2NCCC32)c1 (single isomer, unassigned) [Example 27, 7-{[3-fluoro-5-(propan-2-yloxy)phenyl]sulfonyl}-1,2,3,3a,4,9b-hexahydrochromeno[3,4-b]pyrrole]"
11,< 500,"O=S(=O)(c1cc(F)cc(Cl)c1)c1ccc2c(c1)OCC1NCCC21 (single isomer, unassigned) [Example 6, 7-[(3-chloro-5-fluorophenyl)sulfonyl]-1,2,3,3a,4,9b-hexahydrochromeno[3,4-b]pyrrole]"
12,> 1000,"O=S(=O)(c1ccccc1)c1ccc2c(c1)OCC1C2CCN1C1CCOCC1 (single isomer, unassigned) [Example 69, 7-(phenylsulfonyl)-3-(tetrahydro-2H-pyran-4-yl)-1,2,3,3a,4,9b-hexahydrochromeno[3,4-b]pyrrole]"
13,< 500,"O=S(=O)(c1cccc(C(F)(F)F)c1)c1ccc2c(c1)OCC1NCCC21 (single isomer, unassigned) [Example 17, 7-{[3-(trifluoromethyl)phenyl]sulfonyl}-1,2,3,3a,4,9b-hexahydrochromeno[3,4-b]pyrrole]"

# The remaining lines, values behind:
row,Compound,Ki [nM]
1,"CC(C)N1CCC2c3ccc(S(=O)(=O)c4ccccc4)cc3OCC21 (single isomer, unassigned) [Example 57, 7-(phenylsulfonyl)-3-(propan-2-yl)-1,2,3,3a,4,9b-hexahydrochromeno[3,4-b]pyrrole]",500 to 1000
2,"Cc1cccc(S(=O)(=O)c2ccc3c(c2)OCC2C3CCN2C2CCC2)n1 (single isomer, unassigned) [Example 84, 3-cyclobutyl-7-[(6-methylpyridin-2-yl)sulfonyl]-1,2,3,3a,4,9b-hexahydrochromeno[3,4-b]pyrrole]",> 1000
3,"O=S(=O)(c1ccccc1)c1ccc2c(c1)OCC1C2CCN1CCCO (single isomer, unassigned) [Example 93, 3[7-(phenylsulfonyl)-1,3a,4,9b-tetrahydrochromeno[3,4-b]pyrrol-3(2H)-yl]propan-1-ol]",< 500
4,"O=S(=O)(c1ccccc1)c1ccc2c(c1)OCC1C2CCN1C1CCOCC1 (single isomer, unassigned) [Example 68, 7-(phenylsulfonyl)-3-(tetrahydro-2H-pyran-4-yl)-1,2,3,3a,4,9b-hexahydrochromeno[3,4-b]pyrrole]",< 500
5,"O=S(=O)(c1ccc2c(c1)OCC1NCCC21)c1cccc2ccccc12 (single isomer, unassigned) [Example 19, 7-(naphthalen-1-ylsulfonyl)-1,2,3,3a,4,9b-hexahydrochromeno[3,4-b]pyrrole]",< 500
6,"O=S(=O)(c1cc(Cl)cc(Cl)c1)c1ccc2c(c1)OCC1NCCC21 (single isomer, unassigned) [Example 3, 7-[(3,5-dichlorophenyl)sulfonyl]-1,2,3,3a,4,9b-hexahydrochromeno[3,4-b]pyrrole]",< 500
7,"O=S(=O)(c1ccccc1)c1ccc2c(c1)OCC1C2CCN1CC(F)F (single isomer, unassigned) [Example 77, 3-(2,2-difluoroethyl)-7-(phenylsulfonyl)-1,2,3,3a,4,9b-hexahydrochromeno[3,4-b]pyrrole]",> 1000
8,"O=S(=O)(c1ccccc1)c1ccc2c(c1)OCC1C2CCN1CC1CCCC1 (single isomer, unassigned) [Example 71, 3-(cyclopentylmethyl)-7-(phenylsulfonyl)-1,2,3,3a,4,9b-hexahydrochromeno[3,4-b]pyrrole]",> 1000
9,"O=S(=O)(c1cc(F)cc(F)c1)c1ccc2c(c1)OCC1NCCC21 (single isomer, unassigned) [Example 14, 7-[(3,5-difluorophenyl)sulfonyl]-1,2,3,3a,4,9b-hexahydrochromeno[3,4-b]pyrrole]",< 500
10,"CC(C)Oc1cccc(S(=O)(=O)c2ccc3c(c2)OCC2NCCC32)c1 (racemic) [Example 107, 7-{[3-(propan-2-yloxy)phenyl]sulfonyl}-1,2,3,3a,4,9b-hexahydrochromeno[3,4-b]pyrrole]",< 500
11,"O=S(=O)(c1ccc2c(c1)OCC1NCCC21)c1cc(F)cc(F)c1F (single isomer, unassigned) [Example 42, 7-[(2,3,5-trifluorophenyl)sulfonyl]-1,2,3,3a,4,9b-hexahydrochromeno[3,4-b]pyrrole]",< 500

# Same assay, conditions: read-out: Human 5-HT6 Ki app; membranes of CHO-K1 cells with recombinant human 5-HT6 receptor, 4 nM [3H]LSD, Cheng-Prusoff
row,Compound,Ki [nM]
1,"Cc1cccc(S(=O)(=O)c2ccc3c(c2)OCC2NCCC32)n1 (single isomer, unassigned) [Example 24, 7-[(6-methylpyridin-2-yl)sulfonyl]-1,2,3,3a,4,9b-hexahydrochromeno[3,4-b]pyrrole]",< 500
